SMILES	melting point [°C]
O=C1NCc2ccc(OCCCCN3CCN(c4cccc(Cl)c4Cl)CC3)nc2N1	166 to 167
Cn1cc(C(=O)O)c(=O)c2c3ccc(F)c(N4CCC(O)(c5cccc(C(F)(F)F)c5)CC4)c3ncc21	245
COC(=O)C1=C(C)NC(C)=C(C(=O)OCCCCCCOc2cc(-c3ccccc3)[nH]n2)C1c1cccc(Cl)c1Cl (stereo not drawn)	68 to 71
CC(=O)N[C@H]1CCC(=O)N2CCC[C@@H](C(=O)O)N2C1=O	> 250
CC(C)CCOc1ccc(-n2cc(C(=O)O)cn2)cc1C#N	210 to 211
N[C@@H](CCC(=O)O)C(=O)N[C@@H](Cc1ccccc1)C(=O)O	147 to 149
N#Cc1c(C(=O)O)cnn1-c1ccc(Br)cc1	209 to 211
CC(=O)OC(CF)c1sccc1S(N)(=O)=O (stereo not drawn)	97 to 98
COC(=O)C1(C(=O)OC)Cc2cc(Br)ccc2N1	113 to 155
O=C(CCCCCSc1ccc(Cl)cc1)NO	83 to 85
COc1cc(-c2cn3ccccc3n2)c(F)cc1Cl	139 to 141
COc1ccc(-c2noc(C(F)F)c2-c2ccc(S(N)(=O)=O)cc2)cc1	182 to 183
CC(c1oc2ccccc2c(=O)c1-c1cccc(F)c1)n1nc(-c2cncnc2)c2c(N)ncnc21 (stereo not drawn)	207 to 211
O=C(O)c1cccc2cc(Cc3cc(=O)[nH]c(=S)[nH]3)ccc12	334 to 337
O=C(O)c1cccc(-c2ccc3c(c2)C(Oc2cccc(C(F)(F)F)c2)CC3)c1 (stereo not drawn)	175 to 185
N#Cc1ccc(F)c(C2=Nc3ccc(-c4ccccc4F)cc3NC(=O)C2)c1	239
CC(=O)N(O)C(C)c1cccc(Nc2ccccc2-c2nnc(N)o2)c1Cl (stereo not drawn)	142 to 146
N#Cc1ccc(N2C(=O)NC(CO)(CO)C2=O)cc1C(F)(F)F	207 to 208
Nc1ccc(S(=O)C2=CCCCC2)cc1[N+](=O)[O-] (stereo not drawn)	139 to 140
Oc1ccc(F)c(-c2c(-c3ccccc3)cnc3c(C(F)(F)F)cccc23)c1	85
CCc1ccc2nc(OC)nc(N)c2c1	168 to 170
COCCOc1ccc(Sc2c(O)c3c(=O)n(-c4ccccc4)c4ccccc4c3oc2=O)cc1	144 to 146
CC(CC(=O)O)c1ccc(O)cc1O (stereo not drawn)	92 to 94
COC1=C(Br)CO/C1=C\c1cccc2ccccc12	143 to 148
CC(C)c1cc(-c2ccc(F)cc2)c(CO)c(C(C)C)n1	88 to 90

SMILES	melting point [°C]
CCOc1cc(C)nc2nc(S(=O)(=O)Nc3c(Cl)ccc(C)c3Cl)nn12	228 to 229
CC(C)(C)OC(=O)NCCNC(=O)c1cc(Cl)ccn1	120 to 123
O=C(NC(=S)Nc1nc(-c2ccc3c(c2)CCCC3)cs1)c1cccc2ccccc12	216 to 217
CCCc1nc(C)cn1-c1nc(OC)ccc1[N+](=O)[O-]	96 to 103
CCOC(=O)c1nn(Cc2ccc(OC)c(OC)c2)c2cc(OC)c(OC)cc12	138 to 141
O=S(=O)(c1cc(Br)c(-c2ccc(Cl)cc2)[nH]1)C(F)(F)F	155 to 159
O=C(Nc1n[nH]c(=S)s1)N[C@@H](Cc1ccccc1)C(=O)N1CCOCC1	213 to 216
O=C(O)c1ccccc1OCC(F)(F)F	85 to 86.5
COC(=O)COCc1cc2cc(Cl)ccc2n1S(=O)(=O)c1ccccc1	98 to 100
COc1cc2c(cc1OC)-c1c(-c3nc(C)no3)c(-c3cc(C)c(O)c(C)c3)c(C)n1CC2	218 to 221
COc1nc(C)n2nc(S(=O)(=O)Cl)nc2c1Cl	100 to 101
COc1ccccc1-c1cccc2c1OC(CN)CN2C (stereo not drawn)	90
CC(=O)Oc1ccc(-c2cc3ccc(OC(C)=O)cc3s2)cc1	208 to 210
O=C(O)C1CCc2sc3ccccc3c2C1 (stereo not drawn)	202 to 203
COc1ccc(-c2cc(-c3nccs3)c(=O)n(C)c2-c2ccncc2)cc1	224 to 225
CCOC(=O)c1cc(C)nc2c(O)cccc12	71.8
COc1ccc2nc(-c3csc4ccccc34)[nH]c(=O)c2c1	289 to 290
CC(C)N1CC2CC(CN(C(=O)Cc3ccc([N+](=O)[O-])cc3)C2)C1	93 to 94
CCOC(=O)c1cnc2cc3c(cc2c1O)OCO3	> 290
CC(=NN(C1=NNC(=O)CC1)c1ccccc1)c1ccccc1	176 to 178
COC(=O)C(Br)c1ccc(OCCOc2ccc(Cl)cc2)cc1 (stereo not drawn)	76 to 80
CC1(C)CC([N+]([O-])=Cc2ccccc2)CC(C)(C)N1	113
O=C1c2cc([N+](=O)[O-])ccc2OCN1CCO[N+](=O)[O-]	97 to 99
COc1cccc(NC(NC(C)C(C)(C)C)=C(C#N)S(=O)(=O)C(C)C)c1 (stereo not drawn)	59 to 62
C#CCOc1cc(C=O)ccc1OC	66 to 67

SMILES	melting point [°C]
O=C(O)C(CCCCc1ccccc1)Oc1cccc2ccccc12 (stereo not drawn)	91 to 94
N#Cc1cc(-c2nc3cncnc3s2)ccc1Oc1ccccc1Cl	209 to 211
CCc1c(CN(C)S(=O)(=O)c2cccc(Cl)c2)nn(-c2ccc(Cl)cc2Cl)c1-c1ccc(Br)cc1	78
O=c1[nH]c2cc(C(F)(F)F)ccc2n1-c1cc(C(F)(F)F)cc([N+](=O)[O-])c1O	> 360
CS(=O)c1ccc(-c2coc3ccc(-c4nnc(N)o4)cc23)cc1 (stereo not drawn)	284 to 285
Cc1c(C(=O)Nc2ccc(OCCN3CCOCC3)c(C#N)c2)cnn1-c1ccc(C(F)(F)F)cc1	191 to 193
CC(=O)NCc1ccc(Nc2nccc(-c3sc(-c4cccnc4)nc3C)n2)cc1	199 to 201
CCc1cn(C(C)(C)C(=O)N(C)C)nc1-c1ccccc1	108 to 111
Cc1ccc(S(=O)(=O)OCC2Cc3cccc(Nc4ccc(Cl)cc4)c3O2)cc1 (stereo not drawn)	132 to 134
N=C(Nc1ccccc1-c1ccccc1)N1CCC(=NO)CC1	175 to 176
CCCCCS(=O)(=O)NC(=O)CCCc1ccc(OCCOC)cc1Oc1ncc(C(F)(F)F)cc1Cl	96 to 97
COc1cc(N2CCCN(C[C@@H](C)O)CC2)ccc1Nc1ncc2ccc(-c3ccccc3OC)n2n1	70 to 79
O=C1Nc2ccc(Br)cc2/C1=C/c1ccc[nH]1	267 to 268
CC(C)(C)NNC(=O)c1ccc(Cl)cc1	116 to 122
CCOC(=O)C1(O)C=CN=c2ccc3c(c21)NCN=3 (stereo not drawn)	315 to 316
CN(C)CC1CCCCN1CCCNC(=O)N1c2ccccc2NC(=O)c2ccccc21 (stereo not drawn)	131 to 133
COc1cc2c(cc1OC)CN(CN1CCc3cc(OC)c(OC)cc3C1)CC2	126
O=C1Nc2ccc(Br)cc2C1c1ncnc2c1cnn2C1CCCCC1 (stereo not drawn)	305 to 308
CC(C)(C)OC(=O)N1CCN(CCC#N)CC1C(N)=O (stereo not drawn)	117 to 118
N=C(N)Nc1nc(CSCCC2=NS(=O)(=O)NC(N)=N2)cs1	175 to 192
COc1cccc(C=C2c3ccccc3CCc3ccccc32)c1	83
Nc1nc2ccccc2n1-c1ccc(I)cc1	212 to 214
CN1C(=O)CC[C@]2(C)c3ccc(-c4ncccn4)cc3CC[C@@H]12	160 to 162

From a melting point compilation (Tetko et al.; mined from patent text by program, amines drawn as free bases though some values may be those of a salt)
